The assay concerns the target T1, NPR-B (Homo sapiens, UniProt P20594).
T1 construct: a functional assay using endogenously NPR-B expressing GTM-3 cells; endogenous in cells; host or cells: GTM-3 (human glaucoma trabecular meshwork cells)
T1 sequence (P20594 23-1047): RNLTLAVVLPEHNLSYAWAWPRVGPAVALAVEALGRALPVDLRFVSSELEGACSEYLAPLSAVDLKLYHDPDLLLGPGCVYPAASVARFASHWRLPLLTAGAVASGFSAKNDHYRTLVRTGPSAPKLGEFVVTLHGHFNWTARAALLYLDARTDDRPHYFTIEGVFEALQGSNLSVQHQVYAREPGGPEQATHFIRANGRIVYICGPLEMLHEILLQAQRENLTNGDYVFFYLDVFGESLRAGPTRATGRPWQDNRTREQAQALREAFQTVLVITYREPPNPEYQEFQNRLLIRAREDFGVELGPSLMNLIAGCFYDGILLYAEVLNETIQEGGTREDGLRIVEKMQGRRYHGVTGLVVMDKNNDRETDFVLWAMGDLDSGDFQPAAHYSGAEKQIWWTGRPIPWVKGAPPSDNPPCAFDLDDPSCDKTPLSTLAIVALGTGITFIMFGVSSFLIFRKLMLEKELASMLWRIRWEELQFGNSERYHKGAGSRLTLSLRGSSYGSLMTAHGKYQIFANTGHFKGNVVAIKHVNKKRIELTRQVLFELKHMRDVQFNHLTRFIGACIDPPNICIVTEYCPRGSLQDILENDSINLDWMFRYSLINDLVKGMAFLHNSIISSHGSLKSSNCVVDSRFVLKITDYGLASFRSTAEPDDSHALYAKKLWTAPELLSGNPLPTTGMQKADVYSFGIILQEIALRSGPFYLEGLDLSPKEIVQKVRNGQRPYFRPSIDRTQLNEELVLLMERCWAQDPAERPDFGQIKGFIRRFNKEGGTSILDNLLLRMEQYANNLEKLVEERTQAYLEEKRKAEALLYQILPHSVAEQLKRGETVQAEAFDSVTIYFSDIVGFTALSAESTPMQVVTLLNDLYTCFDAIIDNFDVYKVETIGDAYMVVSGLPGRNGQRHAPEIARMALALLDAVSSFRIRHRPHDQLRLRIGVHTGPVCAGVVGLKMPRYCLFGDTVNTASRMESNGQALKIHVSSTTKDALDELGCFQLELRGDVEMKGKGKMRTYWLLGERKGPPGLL
In words: NPR-B induced production of cyclic GMP in human glaucoma trabecular meshwork cells (GTM-3). It is filed as cell-based. The conditions noted are these: group by EC50 and Emax (CNP = 100%); Table 4; read-out: Activity (group), NPR-B activation assayed with GTM-3 cells.

Numbered stars: 1 amine (or outer) side, 2 acyl side, 3 side chain; on linkers, the order of the positions; unused ones are H or OH. Square brackets hold non-standard residues; d marks the D form. Peptide text beside a SMILES is read from it. * marks the point of attachment. Phe(3,4-Cl2) = N[C@@H](Cc1ccc(Cl)c(Cl)c1)C(=O)O; X12 = CC(C)(C)CNC[C@@H](N[*:1])C(=O)[*:2]; Phe(4-Cl) = N[C@@H](Cc1ccc(Cl)cc1)C(=O)O; Phe(4-F) = N[C@@H](Cc1ccc(F)cc1)C(=O)O; Phe(4-Me) = Cc1ccc(C[C@H](N)C(=O)O)cc1; Pro(4R-NH2) = N[C@H]1CN[C@H](C(=O)O)C1; X2 = O=C([C@H]1CCCN([*:1])C1)[*:2]; dDap(Me2) = CN(C)C[C@@H](N)C(=O)O; Hyp = O=C(O)[C@@H]1C[C@@H](O)CN1; NMeF = CN[C@@H](Cc1ccccc1)C(=O)O; tBuAla = CC(C)(C)C[C@H](N)C(=O)O; NHcycloheptyl = C1CCCC(N*)CC1; NMeL = CN[C@@H](CC(C)C)C(=O)O; X6 = C[C@@H]1CCCC[C@H]1N*; Ac6c = NC1(C(=O)O)CCCCC1; Octanoyl = CCCCCCCC(=O)*; Api = NC1(C(=O)O)CCNCC1 Bounds are passed on as bounds.

For the compound `CCCCCCCC(=O)N[C@H](C)C(=O)N[C@@H](Cc1ccccc1)C(=O)N[C@H](CN(C)C)C(=O)N[C@@H](CC(C)C)C(=O)N1C[C@H](N)C[C@H]1C(=O)N(C)[C@@H](CC(C)C)C(=O)N[C@@H](CC(=O)O)C(=O)N1CCC[C@H]1C(=O)N[C@H](C(N)=O)[C@@H](C)CC` [JAL-1453, Occ-ala-Phe-dap(Me2)-Leu-Tap-Nml-Asp-Pro-Ile-NH2] (Octanoyl-[dA]F[dDap(Me2)]L[Pro(4R-NH2)][NMeL]DPI-NH2), the EC50 is below 1000 nM.

`CCCCCCCC(=O)N[C@H](C)C(=O)N[C@@H](Cc1ccccc1)C(=O)NC1(C(=O)N[C@@H](CC(C)C)C(=O)N2C[C@H](N)C[C@H]2C(=O)N(C)[C@@H](CC(C)C)C(=O)N[C@@H](CC(=O)O)C(=O)N[C@@H](CCCNC(=N)N)C(=O)N[C@H](C(N)=O)[C@@H](C)CC)CCCCC1` [JAL-1454, Occ-ala-Phe-Egz-Leu-Tap-Nml-Asp-Arg-Ile-NH2] (Octanoyl-[dA]F[Ac6c]L[Pro(4R-NH2)][NMeL]DRI-NH2): the EC50 was below 1000 nM.

Regarding `CCCCCCCC(=O)N[C@H](C)C(=O)N[C@@H](Cc1ccccc1)C(=O)N[C@H](CNCC(C)(C)C)C(=O)N[C@@H](CC(C)C)C(=O)N1C[C@H](N)C[C@H]1C(=O)N(C)[C@@H](CC(C)C)C(=O)N[C@@H](CC(=O)O)C(=O)N[C@@H](CCCNC(=N)N)C(=O)N[C@H](C(N)=O)[C@@H](C)CC` [JAL-1463, Occ-ala-Phe-dap(1464)-Leu-Tap-Nml-Asp-Arg-Ile-NH2] (Octanoyl-[dA]F[X12]L[Pro(4R-NH2)][NMeL]DRI-NH2), the EC50 was below 1000 nM.

For `CCCCCCCC(=O)N1CCC[C@H](C(=O)N[C@@H](Cc2ccc(F)cc2)C(=O)N[C@H](CC(C)C)C(=O)N[C@@H](CC(C)C)C(=O)N2C[C@H](O)C[C@H]2C(=O)N(C)[C@@H](CC(C)C)C(=O)N[C@@H](CC(=O)O)C(=O)N[C@@H](CCCNC(=N)N)C(=O)N[C@H](C(N)=O)[C@@H](C)CC)C1` [JAL-1487, Occ-Sni-Pff-leu-Leu-Hyp-Nml-Asp-Arg-Ile-NH2] (Octanoyl-[X2][Phe(4-F)][dL]L[Hyp][NMeL]DRI-NH2), the EC50 is below 1000 nM.

On to `CCCCCCCC(=O)N1CCC[C@H](C(=O)N[C@@H](Cc2ccc(Cl)cc2)C(=O)N[C@H](CC(C)C)C(=O)N[C@@H](CC(C)C)C(=O)N2C[C@H](O)C[C@H]2C(=O)N(C)[C@@H](CC(C)C)C(=O)N[C@@H](CC(=O)O)C(=O)N[C@@H](CCCNC(=N)N)C(=O)N[C@H](C(N)=O)[C@@H](C)CC)C1` [JAL-1493, Occ-Sni-Pcf-leu-Leu-Hyp-Nml-Asp-Arg-Ile-NH2] (Octanoyl-[X2][Phe(4-Cl)][dL]L[Hyp][NMeL]DRI-NH2), for which the EC50 is below 1000 nM.

With `CCCCCCCC(=O)N1CCC[C@H](C(=O)N[C@@H](Cc2ccc(C)cc2)C(=O)N[C@H](CC(C)C)C(=O)N[C@@H](CC(C)C)C(=O)N2C[C@H](O)C[C@H]2C(=O)N(C)[C@@H](CC(C)C)C(=O)N[C@@H](CC(=O)O)C(=O)N[C@@H](CCCNC(=N)N)C(=O)N[C@H](C(N)=O)[C@@H](C)CC)C1` [JAL-1494, Occ-Sni-Pmf-leu-Leu-Hyp-Nml-Asp-Arg-Ile-NH2] (Octanoyl-[X2][Phe(4-Me)][dL]L[Hyp][NMeL]DRI-NH2), the EC50 is below 1000 nM.

`CCCCCCCC(=O)N1CCC[C@H](C(=O)N[C@@H](Cc2ccc(Cl)c(Cl)c2)C(=O)N[C@H](CC(C)C)C(=O)N[C@@H](CC(C)C)C(=O)N2C[C@H](O)C[C@H]2C(=O)N(C)[C@@H](CC(C)C)C(=O)N[C@@H](CC(=O)O)C(=O)N[C@@H](CCCNC(=N)N)C(=O)N[C@H](C(N)=O)[C@@H](C)CC)C1` [JAL-1496, Occ-Sni-Eaa-leu-Leu-Hyp-Nml-Asp-Arg-Ile-NH2] (Octanoyl-[X2][Phe(3,4-Cl2)][dL]L[Hyp][NMeL]DRI-NH2): the EC50 was below 1000 nM.

Turning to `CCCCCCCC(=O)N1CCC[C@H](C(=O)N[C@@H](Cc2ccccc2)C(=O)N[C@H](CC(C)C)C(=O)N[C@@H](CC(C)C)C(=O)N2C[C@H](O)C[C@H]2C(=O)N(C)[C@@H](CC(C)C)C(=O)N[C@@H](CC(=O)O)C(=O)N2CCC[C@H]2C(=O)N[C@@H]2CCCC[C@H]2C)C1` [JAL-1510, Occ-Sni-Phe-leu-Leu-Hyp-Nml-Asp-Pro-1860] (Octanoyl-[X2]F[dL]L[Hyp][NMeL]DP-X6), the EC50 is below 1000 nM.

As for `CCCCCCCC(=O)N[C@H](C)C(=O)N[C@@H](Cc1ccccc1)C(=O)N[C@H](CC(C)C)C(=O)N[C@@H](CC(C)C)C(=O)N1C[C@H](O)C[C@H]1C(=O)N(C)[C@@H](CC(C)C)C(=O)N[C@H](C(=O)N[C@@H](CCCNC(=N)N)C(=O)N[C@H](C(N)=O)[C@@H](C)CC)C1CCCC1` [JAL-1556, Occ-ala-Phe-leu-Leu-Hyp-Nml-(BB725)-Arg-Ile-NH2] (HELM PEPTIDE1{[CCCCCCCC(=O)[*:2]].[dA].F.[dL].L.[Hyp].[meL].[O=C([C@@H](N[*:1])C1CCCC1)[*:2]].R.I.[am]}$$$$V2.0), the EC50 is below 1000 nM.

Regarding `CCCCCCCC(=O)N1CCC[C@H](C(=O)N[C@@H](Cc2ccccc2)C(=O)N[C@H](CC(C)C)C(=O)N[C@@H](CC(C)C)C(=O)N2C[C@H](N)C[C@H]2C(=O)N(C)[C@@H](CC(C)C)C(=O)N[C@@H](CC(=O)O)C(=O)N2CCC[C@H]2C(=O)N[C@H](C(N)=O)[C@@H](C)CC)C1` [JAL-1559, Occ-Sni-Phe-leu-Leu-Tap-Nml-Asp-Pro-Ile-NH2] (Octanoyl-[X2]F[dL]L[Pro(4R-NH2)][NMeL]DPI-NH2), the EC50 was below 1000 nM.

For `CCCCCCCC(=O)N1CCC[C@H](C(=O)N[C@@H](Cc2ccccc2)C(=O)NC2(C(=O)N[C@@H](CC(C)C)C(=O)N3C[C@H](N)C[C@H]3C(=O)N(C)[C@@H](CC(C)C)C(=O)N[C@@H](CC(=O)O)C(=O)N3CCC[C@H]3C(=O)N[C@H](C(N)=O)[C@@H](C)CC)CCNCC2)C1` [JAL-1561, Occ-Sni-Phe-Apc-Leu-Tap-Nml-Asp-Pro-Ile-NH2] (Octanoyl-[X2]F[Api]L[Pro(4R-NH2)][NMeL]DPI-NH2), the EC50 is below 1000 nM.

In the case of `CCCCCCCC(=O)N1CCC[C@H](C(=O)N[C@@H](Cc2ccccc2)C(=O)N[C@H](CC(C)C)C(=O)N[C@@H](CC(C)C)C(=O)N2C[C@H](O)C[C@H]2C(=O)N(C)[C@@H](CC(C)C)C(=O)N[C@@H](CC(=O)O)C(=O)N[C@@H](CCCNC(=N)N)C(=O)N(C)[C@H](C(N)=O)[C@@H](C)CC)C1` [JAL-1569, Occ-Sni-Phe-leu-Leu-Hyp-Nml-Asp-Arg-Nmi-NH2] (HELM PEPTIDE1{[CCCCCCCC(=O)[*:2]].[O=C([C@H]1CCCN([*:1])C1)[*:2]].F.[dL].L.[Hyp].[meL].D.R.[meI].[am]}$$$$V2.0), the EC50 is below 1000 nM.

For `CCCCCCCC(=O)N1CCC[C@H](C(=O)N(C)[C@@H](Cc2ccccc2)C(=O)N[C@H](CC(C)C)C(=O)N[C@@H](CC(C)C)C(=O)N2C[C@H](O)C[C@H]2C(=O)N(C)[C@@H](CC(C)C)C(=O)N[C@@H](CC(=O)O)C(=O)N[C@@H](CCCNC(=N)N)C(=O)N[C@H](C(N)=O)[C@@H](C)CC)C1` [JAL-1573, Occ-Sni-Nmf-leu-Leu-Hyp-Nml-Asp-Arg-Ile-NH2] (HELM PEPTIDE1{[CCCCCCCC(=O)[*:2]].[O=C([C@H]1CCCN([*:1])C1)[*:2]].[meF].[dL].L.[Hyp].[meL].D.R.I.[am]}$$$$V2.0), the EC50 was below 1000 nM.

On to `CCCCCCCC(=O)N1CCC[C@H](C(=O)N[C@@H](Cc2ccccc2)C(=O)N[C@H](CC(C)C)C(=O)N[C@@H](CC(C)C)C(=O)N2C[C@H](O)C[C@H]2C(=O)N[C@@H](CC(C)(C)C)C(=O)N[C@@H](CC(=O)O)C(=O)N2CCC[C@H]2C(=O)NC2CCCCCC2)C1` [JAL-1595, Occ-Sni-Phe-leu-Leu-Hyp-Npg-Asp-Pro-Che] (Octanoyl-[X2]F[dL]L[Hyp][tBuAla]DP-NHcycloheptyl), for which the EC50 was below 1000 nM.

`CCCCCCCC(=O)N1CCC[C@H](C(=O)N(C)[C@@H](Cc2ccccc2)C(=O)N[C@H](CC(C)C)C(=O)N[C@@H](CC(C)C)C(=O)N2C[C@H](O)C[C@H]2C(=O)N(C)[C@@H](CC(C)C)C(=O)N[C@@H](CC(=O)O)C(=O)N2CCC[C@H]2C(=O)NC2CCCCCC2)C1` [JAL-1597, Occ-Sni-Nmf-leu-Leu-Hyp-Nml-Asp-Pro-Che] (Octanoyl-[X2][NMeF][dL]L[Hyp][NMeL]DP-NHcycloheptyl): the EC50 is below 1000 nM.

Consider `CCCCCCCC(=O)N1CCC[C@H](C(=O)N[C@@H](Cc2ccc(Cl)c(Cl)c2)C(=O)N[C@H](CC(C)C)C(=O)N[C@@H](CC(C)C)C(=O)N2C[C@H](O)C[C@H]2C(=O)N(C)[C@@H](CC(C)C)C(=O)N[C@@H](CC(=O)O)C(=O)N2CCC[C@H]2C(=O)NC2CCCCCC2)C1` [JAL-1599, Occ-Sni-Eaa-leu-Leu-Hyp-Nml-Asp-Pro-Che] (Octanoyl-[X2][Phe(3,4-Cl2)][dL]L[Hyp][NMeL]DP-NHcycloheptyl), for which the EC50 is below 1000 nM.

The values are drawn from patent US9822147B2, “Methods of treating ophthalmic diseases using NPR-B agonists” (priority 2009, dated 2017).
